The source made the active and inactive calls. No cut-off for these calls is given here.
Assays:
Homo sapiens = species on record: Homo sapiens; experiment: Selectivity for human GSHR1a over human motilin receptor
Rattus norvegicus [1] = experiment: Induction of gastric emptying of high caloric meal in Wistar rat gastroparesis model at 0.08 to […] mg/kg, iv after 60 mins; format: functional, organism-based; details: Stomach
[2] = target: Growth hormone secretagogue receptor type 1 (Homo sapiens, UniProt Q92847); experiment: Displacement of [125I]-Ghrelin from human GSHR1a transfected in HEK293 cell membranes after 30 mins by microplate scintillation and luminescence counting method
Rattus norvegicus [3] = experiment: Reversal of morphine-induced intestinal transit delaying in iv dosed Sprague-Dawley rat postoperative ileus model at 100 ug/kg, iv administered prior to 99mTC labeled methylcellulose meal intake measured after 15 mins by gamma counting method; format: functional, organism-based
Rattus norvegicus [4] = experiment: Induction of gastric emptying of solid meal in Sprague-Dawley rat postoperative ileus model at 100 to 300 ug/kg, iv administered prior to 99mTC labeled methylcellulose meal intake measured after 15 mins by gamma counting method relative to vehicle-treated control; format: functional, organism-based; details: Stomach
Rattus norvegicus [5] = experiment: Gastrokinetic activity in Wistar rat gastroparesis model at 100 ug/kg, iv administered immediately post phenol red containing methylcellulose meal intake measured after 15 mins by colorimetric method relative to vehicle-treated control; format: functional, organism-based
Rattus norvegicus [6] = experiment: Induction of gastric emptying of solid meal in iv dosed Wistar rat gastroparesis model administered immediately post methylcellulose meal containing phenol red intake measured after 15 mins by colorimetric method; format: functional, organism-based; details: Stomach
Rattus norvegicus [7] = experiment: Effect on pulsatile growth hormone release in plasma of free moving Sprague-Dawley rat at 5 ug/kg, iv administered at 1100 and 1300 […] during 6 hrs of sampling period measured every 15 mins over 6 hrs of sampling period by radioimmunoassay relative to vehicle-treated control; format: functional, organism-based
Rattus norvegicus [8] = experiment: Induction of gastric emptying of solid meal in Wistar rat gastroparesis model at 5 to 50 ug/kg, iv administered immediately post methylcellulose meal containing phenol red intake measured after 15 mins by colorimetric method; format: functional, organism-based; details: Stomach
Rattus norvegicus [9] = experiment: Induction of gastric emptying of solid meal in Wistar rat gastroparesis model at 30 ug/kg, iv administered immediately post methylcellulose meal containing phenol red intake measured after 15 mins by colorimetric method relative to vehicle-treated control; format: functional, organism-based; details: Stomach
Rattus norvegicus [10] = experiment: Induction of gastric emptying of solid meal in Wistar rat gastroparesis model at 100 ug/kg, iv administered immediately post phenol red containing methylcellulose meal intake measured after 15 mins by colorimetric method relative to vehicle-treated control; format: functional, Stomach
Rattus norvegicus [11] = experiment: Gastrokinetic activity in Wistar rat gastroparesis model at 20 ug/kg, iv administered immediately post phenol red containing methylcellulose meal intake measured after 15 mins by colorimetric method relative to vehicle-treated control; format: functional, organism-based
Rattus norvegicus [12] = experiment: Induction of gastric emptying of solid meal in Wistar rat gastroparesis model at 20 ug/kg, iv administered immediately post phenol red containing methylcellulose meal intake measured after 15 mins by colorimetric method relative to vehicle-treated control; format: functional, Stomach

Chain of Growth hormone secretagogue receptor type 1 (Q92847 whole entry): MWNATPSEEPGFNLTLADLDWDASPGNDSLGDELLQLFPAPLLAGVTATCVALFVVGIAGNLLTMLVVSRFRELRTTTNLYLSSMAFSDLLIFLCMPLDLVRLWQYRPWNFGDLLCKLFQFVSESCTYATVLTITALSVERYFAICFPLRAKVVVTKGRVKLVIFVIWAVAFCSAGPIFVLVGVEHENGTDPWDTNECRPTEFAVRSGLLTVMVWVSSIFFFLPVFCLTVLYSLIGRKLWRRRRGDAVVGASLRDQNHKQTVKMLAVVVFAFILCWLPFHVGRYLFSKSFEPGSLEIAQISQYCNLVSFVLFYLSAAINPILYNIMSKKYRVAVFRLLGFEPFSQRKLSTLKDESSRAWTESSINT

| SMILES | Selectivity ratio (Homo sapiens) | other results |
| --- | --- | --- |
| CC[C@H](C)[C@@H]1NCCCCCCCCNC(=O)[C@@H](Cc2ccccc2)NC(=O)[C@@H](C)N(C)C1=O | 28 |  |
| CC(C)C1NCCOc2ccccc2/C=C\CNC(=O)C(Cc2ccccc2)NC(=O)C(C)N(C)C1=O (centres undefined) | > 1700 |  |
| CC[C@H](C)[C@@H]1NCCOc2ccccc2CCCNC(=O)[C@@H](Cc2ccc(F)cc2)NC(=O)[C@@H](C)N(C)C1=O | > 7700 |  |
| CCC[C@@H]1NCCOc2ccccc2CCCNC(=O)[C@@H](Cc2ccccc2)NC(=O)[C@H](C)N(C)C1=O | 3010 |  |
| CC[C@H](C)[C@@H]1NCCOc2ccccc2CCCNC(=O)[C@@H](Cc2ccccc2Cl)NC(=O)[C@@H](C)N(C)C1=O | 30000 |  |
| C[C@@H]1C(=O)N[C@H](Cc2ccc(Cl)cc2)C(=O)NCCCc2ccccc2OCCN[C@@H](C2CC2)C(=O)N1C |  | Activity (Rattus norvegicus [1]): Active |
| C[C@@H]1C(=O)N[C@H](Cc2ccccc2)C(=O)NCCCc2ccc3c(c2)OC(CC3)CN[C@@H](C2CC2)C(=O)N1C (some centres undefined) |  | Activity (Rattus norvegicus [1]): Active |
| C[C@@H]1C(=O)N[C@H](Cc2ccc(Cl)cc2Cl)C(=O)NCCCc2ccccc2OCCN[C@@H](C2CC2)C(=O)N1C | > 5500 |  |
| CCC[C@@H]1NCCOc2ccccc2CCCNC(=O)[C@@H](Cc2ccc(O)cc2)NC(=O)CN(C)C1=O | > 100 |  |
| C[C@@H]1C(=O)N[C@H](Cc2ccccc2)C(=O)NCCCc2ccccc2OCCN[C@@H](C(C)(C)C)C(=O)N1C | 4300 |  |
| CC(C)[C@@H]1NCCOc2ccccc2CCCNC(=O)[C@H](Cc2ccccc2)NC(=O)C2(CCCC2)NC1=O | 117 |  |
| CC[C@H](C)[C@@H]1NCCOc2ccc(C(=O)O)cc2CCCNC(=O)[C@@H](Cc2ccccc2)NC(=O)[C@@H](C)N(C)C1=O | 100 |  |
| CC(C)C[C@@H]1NCCOc2ccccc2/C=C\CNC(=O)[C@H](Cc2ccccc2)NC(=O)C2(CCCC2)NC1=O | 200 |  |
| C[C@@H]1C(=O)N[C@H](Cc2ccc(O)c(C(C)(C)C)c2)C(=O)NCCCc2ccccc2OCCN[C@@H](C2CC2)C(=O)N1C | 21 |  |
| C[C@@H]1CN[C@@H](C2CC2)C(=O)N(C)[C@H](C)C(=O)N[C@H](Cc2ccc(F)cc2)C(=O)NCCCc2ccc(F)cc2O1 |  | Activity (Rattus norvegicus [1]): Active |
| CC[C@H](C)[C@@H]1NCCCc2ccccc2/C=C\CNC(=O)[C@@H](Cc2ccccc2)NC(=O)[C@@H](C)N(C)C1=O | > 800 |  |
| CC[C@H](C)[C@@H]1NCCOc2ccccc2/C=C\CNC(=O)[C@@H](Cc2ccccc2)NC(=O)[C@@H](C)N(C)C1=O | > 3300 |  |
| CC[C@H](C)[C@@H]1NCCOc2ccc(F)cc2CCCNC(=O)[C@H](Cc2cccc(Cl)c2)NC(=O)C2(CCCC2)NC1=O | 74 |  |
| CCC[C@@H]1NCCOc2ccccc2CCCNC(=O)[C@@H](Cc2c[nH]c3ccccc23)NC(=O)CN(C)C1=O | 71 |  |
| CCC(C)[C@H]1NCCOc2ccccc2[C@H]2C[C@@H]2CNC(=O)[C@H](Cc2cccc(Cl)c2)NC(=O)C2(CCCC2)NC1=O (some centres undefined) | 400 |  |
| CC[C@H](C)[C@@H]1NCCCCCCCCNC(=O)[C@H](Cc2cccc(Cl)c2)NC(=O)C2(CCCC2)NC1=O | 35 |  |
| CC[C@H](C)[C@@H]1NC[C@H](C)Oc2ccccc2CCCNC(=O)[C@H](Cc2cccc(Cl)c2)NC(=O)C2(CCCC2)NC1=O | 300 |  |
| C[C@@H]1C(=O)N[C@H](Cc2ccc(F)cc2)C(=O)NCCCc2ccc(F)cc2OCCN[C@@H](C2CC2)C(=O)N1C | 2500 | Activity (Rattus norvegicus [1]): Active |
| CCCC[C@@H]1NCCOc2ccccc2CCCNC(=O)[C@@H](Cc2ccccc2)NC(=O)CN(C)C1=O | 142 |  |
| CC[C@H](C)[C@@H]1NCCOc2ccccc2CCCNC(=O)[C@@H](Cc2cccc3ccccc23)NC(=O)[C@@H](C)N(C)C1=O | 13000 |  |
| C[C@H]1NC(=O)C2(CCCC2)NCCOc2ccccc2/C=C\CNC(=O)[C@H](Cc2cccc(Cl)c2)NC1=O | 450 |  |

| SMILES | Selectivity ratio (Homo sapiens) | other results |
| --- | --- | --- |
| CC[C@H](C)[C@@H]1NCCOc2ccccc2CCCNC(=O)[C@@H](Cc2ccccc2)NC(=O)[C@@H](C)N(C)C1=O | > 100 |  |
| C[C@@H]1C(=O)N[C@H](Cc2ccccc2)C(=O)NCCCc2ccccc2OCCN[C@@H](C2CC2)C(=O)N1C | 2500 |  |
| CC(C)[C@@H]1NCCOc2ccccc2/C=C\CNC(=O)[C@H](Cc2ccccc2)NC(=O)[C@@H](C)N(C)C1=O | > 1700 |  |
| C[C@@H]1CN[C@@H](C2CC2)C(=O)N(C)[C@H](C)C(=O)N[C@H](Cc2ccc(F)cc2)C(=O)NCCCc2ccccc2O1 |  | Activity (Rattus norvegicus [1]): Active; %max [2]: 96%; Activity (Rattus norvegicus [3]): Dose-dependent effect; Activity (Rattus norvegicus [4]): Active; Activity (Rattus norvegicus [5]): Active; Activity (Rattus norvegicus [6]): Dose-dependent effect |
| CCCCCCCC(=O)OC[C@H](NC(=O)[C@H](CO)NC(=O)CN)C(=O)N[C@@H](Cc1ccccc1)C(=O)N[C@@H](CC(C)C)C(=O)N[C@@H](CO)C(=O)N1CCC[C@H]1C(=O)N[C@@H](CCC(=O)O)C(=O)N[C@@H](Cc1cnc[nH]1)C(=O)N[C@@H](CCC(N)=O)C(=O)N[C@@H](CCCNC(=N)N)C(=O)N[C@H](C(=O)N[C@@H](CCC(N)=O)C(=O)N[C@@H](CCC(N)=O)C(=O)N[C@@H](CCCNC(=N)N)C(=O)N[C@@H](CCCCN)C(=O)N[C@@H](CCC(=O)O)C(=O)N[C@@H](CO)C(=O)N[C@@H](CCCCN)C(=O)N[C@@H](CCCCN)C(=O)N1CCC[C@H]1C(=O)N1CCC[C@H]1C(=O)N[C@@H](C)C(=O)N[C@@H](CCCCN)C(=O)N[C@@H](CC(C)C)C(=O)N[C@@H](CCC(N)=O)C(=O)N1CCC[C@H]1C(=O)N[C@@H](CCCNC(=N)N)C(=O)O)C(C)C |  | Activity (Rattus norvegicus [7]): Active; Activity (Rattus norvegicus [8]): Active |
| CC[C@H](C)[C@@H]1NCCOc2ccccc2CCCNC(=O)[C@@H](Cc2ccc(OC)cc2)NC(=O)[C@@H](C)N(C)C1=O | > 7100 |  |
| O=C1NC/C=C/c2ccccc2OCCNC2(CCCC2)C(=O)NC2(CCCC2)C(=O)N[C@H]1Cc1ccccc1 | 222 |  |
| CC[C@H](C)[C@@H]1NCCOc2ccccc2CCCNC(=O)[C@@H](Cc2cccs2)NC(=O)[C@@H](C)N(C)C1=O | > 1000 |  |
| CC1COc2ccccc2CCCNC(=O)[C@@H](Cc2ccc(F)cc2)NC(=O)[C@@H](C)N(C)C(=O)[C@H](C2CC2)N1 (some centres undefined) | 1700 |  |
| CC[C@H](C)[C@@H]1NCCOc2ccccc2CCCNC(=O)[C@@H](Cc2ccc3ccccc3c2)NC(=O)[C@@H](C)N(C)C1=O | 4900 |  |
| CC(C)C[C@@H]1NCCOc2ccccc2/C=C\CNC(=O)[C@H](Cc2ccccc2Cl)NC(=O)C2(CCCC2)NC1=O | 1040 |  |
| CCC[C@@H]1NCCOc2ccccc2CCCNC(=O)[C@@H](Cc2ccccc2)NC(=O)CN(C)C1=O | 304 |  |
| CC[C@H](C)[C@@H]1NCCOc2ccccc2CCCNC(=O)[C@@H](Cc2ccc(Cl)cc2)NC(=O)[C@@H](C)N(C)C1=O | 28000 | Activity (Rattus norvegicus [1]): Active; Activity (Rattus norvegicus [9]): Active; Activity (Rattus norvegicus [5]): Active; Activity (Rattus norvegicus [10]): 30 - 39% |
| CC[C@H](C)[C@@H]1NCCOc2ccccc2CCCNC(=O)[C@@H](Cc2ccccc2)NC(=O)[C@@H](C)N(CC)C1=O | 3700 |  |
| C[C@@H]1C(=O)N[C@H](Cc2ccc(F)cc2)C(=O)NCCCc2ncccc2OCCN[C@@H](C2CC2)C(=O)N1C | 714 |  |
| CC[C@H](C)[C@@H]1NCCOc2ccccc2/C=C\CNC(=O)[C@H](Cc2ccc(Cl)cc2)NC(=O)C2(CCOC2)NC1=O (some centres undefined) | > 159 |  |
| CC(C)C[C@@H]1NCCOc2ccccc2/C=C\CNC(=O)[C@H](Cc2cccc(Cl)c2)NC(=O)C2(CCCC2)NC1=O | 1080 | Activity (Rattus norvegicus [1]): Active |
| CCC[C@@H]1NCCOc2ccccc2/C=C\CNC(=O)[C@@H](Cc2ccccc2)NC(=O)[C@@H](C)N(C)C1=O | 3400 |  |
| C[C@H](NC(=O)[C@@H](Cc1c[nH]c2ccccc12)NC(=O)[C@@H](N)Cc1cnc[nH]1)C(=O)N[C@H](Cc1c[nH]c2ccccc12)C(=O)N[C@@H](Cc1ccccc1)C(=O)N[C@@H](CCCCN)C(N)=O |  | Activity (Rattus norvegicus [11]): Active; Activity (Rattus norvegicus [12]): 40% |
| CC1(C)NC(=O)C2(CCCC2)NCCOc2ccccc2/C=C\CNC(=O)[C@H](Cc2cccc(Cl)c2)NC1=O | 346 |  |
| CC[C@H](C)[C@@H]1NCCOc2ccccc2CCCNC(=O)[C@@H](Cc2cccc(Cl)c2)NC(=O)[C@@H](C)N(C)C1=O | 3040 |  |
| C[C@H]1C(=O)N[C@@H](Cc2ccc(F)cc2)C(=O)NC[C@H]2C[C@@H]2c2ccccc2OCCN[C@H](C2CC2)C(=O)N1C | 450 |  |
| C[C@@H]1CN[C@@H](C2CC2)C(=O)N(C)[C@H](C)C(=O)N[C@H](Cc2ccc(Cl)cc2)C(=O)NCCCc2ccc(F)cc2O1 |  | Activity (Rattus norvegicus [1]): Active |
| C[C@@H]1CN[C@@H](C2CC2)C(=O)N(C)[C@H](C)C(=O)N[C@H](Cc2ccc(Cl)cc2)C(=O)NCCCc2ccccc2O1 |  | Activity (Rattus norvegicus [1]): Active |
| C[C@@H]1C(=O)N[C@H](Cc2ccc(F)cc2)C(=O)NCCCc2cc(NS(C)(=O)=O)ccc2OCCN[C@@H](C2CC2)C(=O)N1C | 250 |  |

— ChEMBL document CHEMBL3879905, “Methods of using macrocyclic modulators of the ghrelin receptor” (2013)
